Experimental data: patent US20230233546A1, “METHODS OF TREATING CANCER” (Kymera Therapeutics, Inc., priority 2021, published 2023)

How the values were obtained:
[1] = tested on: Acute lymphoblastic leukemia cells (RS4;11); assay: Cell Titer Glo cell viability / growth inhibition in RS4;11; assay type: cell-based; details: for IC50: Homo sapiens, RS4-11, read-out: all cell killing CTG IC50 in RS4;11
Procedure: (§1) In vitro cell viability in all cells lines, at optimized growth conditions, was assessed using Cell Titer Glo (Promega) assay performed over 24 h-96 h compound treatments. Compound treatments were carried out using a 11-point dose response, 3-fold serial dilutions stating at a maximum concentration of 1 uM. IC50, IC90 values were calculated by curve fitting using appropriate Nonlinear Regression fit in GraphPad Prism. Cell cycle arrest and/or apoptosis in response to single agent or combination treatment was assessed using flow cytometry analysis on cells treated for 24 h.
Acute lymphoblastic leukemia cells (RS4;11) were treated for 24 h with Compound A or small molecule inhibitor DS-3032 in a 3-fold serial dilution dose-response at maximum concentration of 1 mM. Growth inhibition was quantified using Cell titer glo (Promega) assay at 24 h continuous treatment.

[2] = tested on: MOLM-13 xenograft; assay: MOLM-13 xenograft model, combination with standard of care; assay type: in vivo
[3] = tested on: disseminated AML model; assay: Disseminated AML xenograft model, survival; assay type: in vivo, mouse; details: weekly administration, compared to vehicle treated animals
Procedure: Female mice, 5-8 wks old mice NOD/SCID mice from SPF (Beijing) experimental Animal Science Technology Co., ltd. Animals were received, housed and observed for seven days prior to study initiation. Each mouse will be with tumor cells in 0.1 ml PBS via tail-vein injection. Groups and treatments were started 4 days post-inoculation. Based on the body weight, mice were randomly assigned to respective groups using a computer-generated randomization procedure. Compound A was formulated in 20% HP-β-CD at concentrations up to 0.1 mg/mL and administered intravenously to tumor bearing animals.
In this model, Compound A exposures correlated with induction of apoptotic p53 target genes and tumor growth inhibition.

[4] = tested on: CTG-2700 AML PDX; assay: AML patient-derived xenograft model CTG-2700; assay type: in vivo, mouse; details: 1 mg/kg, Q3W, IV
Procedure: (§2) AML patient cells from leukapheresis were intravenously (IV) injected and established in immunocompromised host strain mice. Surrogate animals were used to determine the level of engraftment targeting a threshold of ˜20% huCD45+ cells in BM. Mice were randomized on study and treatment was initiated. Vehicle and Compound A, 1 mg/kg were administered IV, every three weeks for six weeks (total of two doses of Compound A). At study end, whole blood, bone marrow and spleen were assessed by flow cytometry.

[5] = tested on: MOLM-13 cell line; assay: Combination treatment in MOLM-13 cell line, apoptosis and cell killing; assay type: cell-based; details: combination with venetoclax and midostaurin
Procedure: as §1

[6] = tested on: CTG-2240 AML PDX; assay: AML patient-derived xenograft model CTG-2240; assay type: in vivo, mouse; details: 1 mg/kg, Q3W, IV
Procedure: as §2

[7] = tested on: OCI-LY10 p53^WT ABC-subtype DLBCL xenograft; assay: OCI-LY10 DLBCL xenograft model; assay type: in vivo
[8] = tested on: p53; assay: p53 stabilization, p53 MSD assay in RS4;11 cells; assay type: cell-based; details: RS4;11, 2 h treatment
Procedure: Acute lymphoblastic leukemia cells (RS4;11) were treated for 2 h (4 h, 8 h and 24 h—data not shown) with Compound A or small molecule inhibitor DS-3032 in a 3-fold serial dilution dose-response at maximum concentration of 1 mM. p53 levels were quantified using p53 MSD assay (Total p53 Whole Cell Lysate Kit, MSD, K150DBD-2).

[9] = tested on: Acute lymphoblastic leukemia cells (RS4;11); assay: Washout apoptosis assay, Caspase Glo 3/7 in RS4;11; assay type: cell-based; details: RS4;11, 4 h exposure followed by washout, measured at 24 or 48 h post treatment
Procedure: For washout assay, cells were treated for 4-24 h at serial dilutions indicated above. At the end of treatment times (4 h, 8 h, 16 h and 24 h) cells were washed twice with complete media, plated in 384-well plates and incubated for 24-72 h. Cells were assessed for viability using Cell Titer Glo (Promega) assay and apoptosis using Caspase Glo 3/7 (Promega) assay at 24 h, 48 h and 72 h post the start of treatment.
Acute lymphoblastic leukemia cells (RS4;11) were treated for 4 h (8 h, 16 h, 24 h—data not shown) with Compound A or small molecule inhibitor DS-3032 at indicated concentrations. Apoptotic activity was quantified as increase in Caspase activity measured using Caspase Glo® 3/7 assay system (Promega).

[10] = tested on: CTG-2227 AML patient-derived xenograft (PDX); assay: AML patient-derived xenograft model CTG-2227; assay type: in vivo, mouse; details: 1 mg/kg, Q3W, IV
Procedure: as §2

[11] = tested on: p53, p21, and PUMA; assay: Protein markers in RS4;11 tumor xenografts, western blot; assay type: in vivo, mouse; details: 1 mg/kg
Procedure: At various times tumor bearing animals were sacrificed and plasma and tumors collected for pharmacokinetic and pharmacodynamic determinations.
(§3) Compound A was administered as a single intravenous bolus in RS411 tumor bearing mice at doses of 1, 3, and 10 mg/kg. […] Change in the levels of protein markers in degrader treated xenografts was quantified relative vehicle treated xenografts using western blot assay. Clinical equivalent doses of SMIs had no significant in vivo impact in these xenograft models.

[12] = tested on: TMD8 p53^MUT ABC-subtype DLBCL xenograft; assay: TMD8 DLBCL xenograft model; assay type: in vivo
[13] = tested on: hCD45+ cells in bone marrow and AML blasts; assay: AML PDX models, flow cytometry at study end; assay type: in vivo, mouse; details: 1 mg/kg, Q3W
Procedure: as §2

[14] = tested on: RS4;11 tumor; assay: RS4;11 subcutaneous mouse xenograft, tumor volume; assay type: in vivo; details: single intravenous bolus, 1, 3, and 10 mg/kg; doses as low as 1 mg/kg
Procedure: Female mice, 5-8 wks old mice NOD/SCID mice from SPF (Beijing) experimental Animal Science Technology Co., ltd. Animals were received, housed and observed for seven days prior to study initiation. Each mouse were inoculated subcutaneously with RS4;11 tumor cells (1×107) in 0.1 ml of RPMI1640 with 10% FBS for tumor development. Groups and treatments were started when the mean tumor volume reached about 100 mm3 for study. Based on the tumor volume, mice were randomly assigned to respective groups using a computer-generated randomization procedure. Compound A was formulated in 20% HP-β-CD at concentrations up to 0.1 mg/mL and administered intravenously to tumor bearing animals. Tumor size was measured twice to three times weekly in three dimensions using a caliper. The measurement of tumor size were conducted twice weekly with a caliper and recorded. The tumor volume (mm^3) was estimated using the formula: TV=a×b2/2, where “a” and “b” are long and short diameters of a tumor, respectively.
as §3

[15] = biological target: T1, C-terminally HiBiT-tagged MDM2 (Homo sapiens, UniProt Q00987); assay: MDM2 degradation, HiBiT signal (Nano-Glo HiBiT lytic detection) in 293T cells; assay type: cell-based
T1 construct: expressed in transfected cells
Procedure: 293T cells stably expressing C-terminally HiBiT-tagged MDM2 were treated for 4 h with Compound A or small molecule inhibitor DS-3032 in a 3-fold serial dilution dose-response at maximum concentration of 1 mM. Degradation potency was measured as reduction in HiBiT signal, quantified using Nano-Glo® HiBiT lytic detection system (Promega).

[16] = tested on: panel of solid and hematological tumor cell lines; assay: Cell growth inhibition across a tumor cell line panel; assay type: cell-based
Procedure: as §1

[17] = tested on: multiple heme indications (AML, T cell lymphomas, mantle cell lymphoma, DLBCL); assay: In vitro activity across heme indications; assay type: cell-based; details: mantle cell lymphoma, and DLBCL most sensitive
Procedure: as §1

T1 sequence (Q00987 whole entry): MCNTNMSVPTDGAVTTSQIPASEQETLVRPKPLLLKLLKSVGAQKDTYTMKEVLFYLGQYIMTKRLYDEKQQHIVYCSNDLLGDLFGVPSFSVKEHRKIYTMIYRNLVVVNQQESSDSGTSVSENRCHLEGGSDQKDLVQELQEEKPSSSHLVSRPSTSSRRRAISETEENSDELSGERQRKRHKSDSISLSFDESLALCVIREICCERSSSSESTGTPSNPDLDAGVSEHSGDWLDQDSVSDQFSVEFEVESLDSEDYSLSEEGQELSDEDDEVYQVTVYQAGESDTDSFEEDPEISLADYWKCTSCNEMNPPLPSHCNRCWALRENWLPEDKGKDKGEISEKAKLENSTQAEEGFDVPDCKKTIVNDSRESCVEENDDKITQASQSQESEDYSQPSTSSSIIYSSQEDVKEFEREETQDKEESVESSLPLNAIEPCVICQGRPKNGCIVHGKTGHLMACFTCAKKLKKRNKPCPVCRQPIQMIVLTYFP

CC(C)[C@@H](CS(=O)(=O)C(C)C)N1C(=O)[C@@](C)(CC(=O)O)C[C@H](c2cccc(Cl)c2)[C@H]1c1ccc(Cl)cc1 [AMG-232]
IC50 [1]: 0.28 µM

COc1ncc(-c2nc3c(n2C(C)C)[C@H](c2ccc(Cl)cc2)N(c2cc(Cl)cn(C)c2=O)C3=O)c(OC)n1 [HDM201]
IC50 [1]: 0.163 µM

Nc1ccn([C@@H]2O[C@H](CO)[C@@H](O)[C@@H]2O)c(=O)n1 [cytarabine]
anti-tumor activity in MOLM-13 xenograft model ([2]; combination of cytarabine and venetoclax): no significant anti-tumor activity | anti-tumor activity in MOLM-13 xenograft model ([2]; cytarabine alone): no significant anti-tumor activity

Cn1c(=O)n(C2CCC(=O)NC2=O)c2ccc(C3CCN(C(=O)[C@H]4CC[C@H](NC(=O)[C@@H]5NC6(CCCCC6)[C@@]6(C(=O)Nc7cc(Cl)ccc76)[C@H]5c5cccc(Cl)c5F)CC4)CC3)cc21 (stereo partly drawn) [Compound A, (3′R,4'S,5′R)-6″-chloro-4′-(3-chloro-2-fluorophenyl)-N-((1R,4R)-4-(4-(1-(2,6-dioxopiperidin-3-yl)-3-methyl-2-oxo-2,3-dihydro-1H-benzo[d]imidazol-5-yl)piperidine-1-carbonyl)cyclohexyl)-2″-oxodispiro[cyclohexane-1,2′-pyrrolidine-3′,3″-indoline]-5′-carboxamide]
survival [3]: significantly prolonged the survival | response in CTG-2700 AML PDX model [4]: partial responses | induction of apoptosis and cell killing in combination [5]: enhances induction of apoptosis and cell killing | response in CTG-2240 AML PDX model [6]: partial responses | activity in OCI-LY10 xenograft model [7]: highly active | stabilization of p53 [8]: strong stabilization of p53 | IC50 [1]: 0.0003 µM | cancer cell growth inhibition ([1]; RS4;11, 24 h continuous treatment, compared with SMI): potently inhibits cancer cell growth | induction of apoptosis (Caspase activity) [9]: sufficient to potently induce apoptosis | anti-tumor activity in MOLM-13 xenograft model ([2]; single dose in combination with daily dosing of venetoclax): sustained tumor regression | response in CTG-2227 AML PDX model [10]: tumor regression | time of peak of protein marker upregulation post-dose [11]: 6 h | upregulation of protein markers p53, p21, and PUMA in tumor xenografts ([11]; relative to vehicle treated xenografts): marked upregulation | activity in TMD8 xenograft model [12]: not | hCD45+ cells in bone marrow and AML blasts [13]: significantly reduces | anti-tumor activity [14]: sustained tumor regression | degradation of MDM2 ([15]; 4 h treatment): rapid and potent degradation of MDM2 | degrades MDM2 at ([15]; FIG. 1, HiBiT-tagged MDM2, 4 h treatment): 0.4 nM | stronger cell growth inhibition, compared to SMIs [16]: > 200 fold | in vitro activity across heme indications [17]: active across multiple heme indications

CC1(C)CCC2(CC1)N[C@@H](C(=O)N[C@@H]1CC[C@@H](C(N)=O)OC1)[C@H](c1ccnc(Cl)c1F)[C@]21C(=O)Nc2cc(Cl)ccc21 [DS-3032]
IC50 [1]: 0.067 µM

COc1cc(C(=O)O)ccc1NC(=O)[C@@H]1N[C@@H](CC(C)(C)C)[C@](C#N)(c2ccc(Cl)cc2F)[C@H]1c1cccc(Cl)c1F [RG7388]
IC50 [1]: 0.22 µM

CC(C)(C)C[C@@H]1N[C@@H](C(=O)N[C@H]2CC[C@H](O)CC2)[C@H](c2cccc(Cl)c2F)[C@]12C(=O)Nc1cc(Cl)ccc12 [SAR405838]
IC50 [1]: 0.62 µM
